Tested on: PICS mouse model
Test: PICS score in PICS mouse model (sepsis/ICU-care model)
Type: in vivo
Conditions: follow-up study; fluoxetine 20 mg/kg, whey protein 1.8 g/kg, daily oral gavage; in contrast to collagen hydrolysate
Method: A validated PICS mouse model was used, which is based on the model of Hujinami et al. (J Clin Med. 2021 April; 10(8): 1593.). The model is proven to induce PICS by mimicking ICU care following polymicrobial sepsis. This is achieved by intraperitoneal injection with cecal slurry followed by other typical ICU-related interventions (i.e. antibiotics and saline administration) for 72 h. The model incorporates a specific combination of physical (grip strength test), mental (anxiety level), and cognitive (discrimination index, habituation index, exploration time) parameters that often characterize PICS.
The development of PICS in the model was first confirmed in a pilot study (not shown herein). The mice develop PICS after ˜1 week.
The mice (C57BL6J, Charles River laboratories, France) receive collagen hydrolysate (“CH”, Peptan, Porcine ˜1800 Da, Rousselot B. V.) or the relevant controls according to the following experimental groups: • 1. No PICS+vehicle (saline), i.e. “Control” • 2. PICS+vehicle (saline), i.e. “PICS” • 3. PICS+CH 1.8 g/kg (˜10 g clinical dose), i.e. “PICS+low dose CH” • 4. PICS+CH 8 g/kg (˜44 g clinical dose), i.e. “PICS+high dose CH”
The mice are administered once a day from day 12 through day 47.
Treatment is started 4 days after the induction of PICS. The CH or vehicle is administered by daily oral gavage for a duration of […] (day 12-47). […]

CNCCC(Oc1ccc(C(F)(F)F)cc1)c1ccccc1 (stereo not shown) [fluoxetine]
improvement in PICS score: little/no improvement

From patent publication US12226459B2, “Collagen hydrolysate for use in prevention and/or treatment of post intensive care syndrome (pics)” (ROUSSELOT B.V., priority 2022, dated 2025)
